In patent publication US7544814B2, “[3.2.0] Heterocyclic compounds and methods of using the same” (Nereus Pharmaceuticals, Inc., priority 2004, dated 2009):
Values joined by “and” are separate entries in the source; they are usually repeats but may differ in a detail not shown here. Equal entries are not always repeated. Where two headings read alike, the source gives them in different places.

Experiments:
[1] = target: T1, chymotrypsin-like activity of 20S proteasomes in RPMI 8226 cells (Homo sapiens, UniProt P28074); assay: Chymotrypsin-like activity of 20S proteasomes in lysates of treated RPMI 8226 cells; type: cell-based; conditions: RPMI-8226, read-out: % inhibition of the chymotrypsin-like activity of 20S proteasomes in RPMI 8226 cell lysates
T1 construct: added to 2.5×10^5/ml RMPI 8226 cells; endogenous in cells; host or cells: RPMI 8226 (ATCC CCL-155)
T1 sequence (P28074 60-263): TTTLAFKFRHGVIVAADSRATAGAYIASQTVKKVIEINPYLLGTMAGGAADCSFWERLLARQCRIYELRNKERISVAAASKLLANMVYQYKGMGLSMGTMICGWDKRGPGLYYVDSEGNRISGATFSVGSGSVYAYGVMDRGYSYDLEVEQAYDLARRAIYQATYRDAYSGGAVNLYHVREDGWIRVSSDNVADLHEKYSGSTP
Protocol: RPMI 8226 (ATCC, CCL-155), the human multiple myeloma cell line, was cultured in RPMI 1640 medium supplemented with 2 mM L-glutamine, 100 units/ml penicillin, 100 μg/ml streptomycin, 1 mM sodium pyruvate and 10% heat inactivated fetal bovine serum at 37° C., 5% CO2 and 95% humidified air. […] DMSO was used as the vehicle control at a final concentration of 0.1%. Following 1 hr incubation of RMPI 8226 cells with the compounds, the cells were pelleted by centrifugation at 2,000 rpm for 10 sec at room temperature and washed 3× with ice-cold 1× Dulbecco's Phosphate-Buffered Saline (DPBS, Mediatech, Herndon, Va.). DPBS washed cells were lysed on ice for 15 min in lysis buffer (20 mM HEPES, 0.5 mM EDTA, 0.05% Triton X-100, pH 7.3) supplemented with protease inhibitor cocktail (Roche Diagnostics, Indianapolis, Ind.). Cell debris was pelleted by centrifugation at 14,000 rpm for 10 min, 4° C. and supernatants (=cell lysates) were transferred to a new tube. Protein concentration was determined by the BCA protein assay kit (Pierce Biotechnology, Rockford, Ill.). […] The released coumarin (AMC) was measured fluorometrically by using λex=390 nm and λem=460 nm. The assay was performed in a microtiter plate (Corning 3904) and followed kinetically with measurements every five minutes for 2 hr. The total amount of protein used for each assay was 20 μg. The final concentration of Suc-LLVY-AMC and DMSO was 20 μM and 0.2%, respectively.

[2] = target: T2, chymotrypsin-like activity of 20S proteasomes in PC-3 cells (Homo sapiens, UniProt P28074); assay: Chymotrypsin-like activity of 20S proteasomes in lysates of treated PC-3 cells; type: cell-based; conditions: 100 nM, 1 hr incubation
T2 construct: endogenous in cells; host or cells: PC-3 (ATCC CRL-1435)
Protocol: PC-3 (ATCC, CRL-1435), the human prostate cancer cell line, was cultured in F12K medium supplemented with 2 mM L-glutamine, 100 units/ml penicillin, 100 μg/ml streptomycin and 10% heat inactivated fetal bovine serum at 37° C., 5% CO2 and 95% humidified air. […] DMSO was used as the vehicle control at a final concentration of 0.1%. Following 1 hr incubation of PC-3 cells with the compounds, the cells were washed 3× with ice-cold 1× Dulbecco's Phosphate-Buffered Saline (DPBS, Mediatech, Herndon, Va.). […] Cell debris was pelleted by centrifugation at 14,000 rpm for 10 min, 4° C. and supernatants (=cell lysates) were transferred to a new tube. Protein concentration was determined by the BCA protein assay kit (Pierce Biotechnology, Rockford, Ill.). […] The released coumarin (AMC) was measured fluorometrically by using λex=390 nm and λem=460 nm. The assay was performed in a microtiter plate (Corning 3904) and followed kinetically with measurements every five minutes for 2 hr. The total amount of protein used for each assay was 20 μg. The final concentration of Suc-LLVY-AMC and DMSO was 20 μM and 0.2%, respectively. Results are presented as the percent inhibition of the 20S proteasome chymotrypsin-like activity relative to the DMSO control.

RPMI 8226 [3] = assay: cells; conditions: 1% or 10% FBS
Protocol: RPMI 8226 (CCL-155), HT-29 (HTB-38), and B16-F10 (CRL-6475) cells were purchased from ATCC. RPMI 8226 cells were maintained in RPMI 1640 media supplemented with 10% (v/v) FBS, 2 mM L-glutamine, 1 mM sodium pyruvate and Penicillin/Streptomycin at 100 IU/ml and 100 μg/ml, respectively. HT-29 cells were maintained in McCoys 5A supplemented with 10% (v/v) FBS, 2 mM L-glutamine, 1 mM sodium pyruvate, 1% (v/v) non-essential amino acids, 10 mM HEPES and Penicillin/Streptomycin at 100 IU/ml and 100 μg/ml, respectively. B16-F10 cells were maintained in DMEM supplemented with 10% (v/v) FBS, 2 mM L-glutamine, 10 mM HEPES and Penicillin/Streptomycin at 100 IU/ml and 100 μg/ml, respectively.
RPMI 8226 cells were seeded at 2×10^4 cells/well in 90 μl RPMI media containing 10% (v/v) FBS or 1% (v/v) FBS into 96 well black-walled, clear-bottom tissue culture plates. […] Formulae II-16, II-17 and Formula II-18 were serially diluted in media containing 1% or 10% FBS and added in triplicate to the test wells. […] The final concentration of Formula II-18 ranged from 2 μM to 630 pM.

[4] = target: T3, trypsin-like activity of purified rabbit muscle 20S proteasome (Oryctolagus cuniculus, UniProt G1SWK8); assay: biochemical
T3 sequence (G1SWK8 1-271): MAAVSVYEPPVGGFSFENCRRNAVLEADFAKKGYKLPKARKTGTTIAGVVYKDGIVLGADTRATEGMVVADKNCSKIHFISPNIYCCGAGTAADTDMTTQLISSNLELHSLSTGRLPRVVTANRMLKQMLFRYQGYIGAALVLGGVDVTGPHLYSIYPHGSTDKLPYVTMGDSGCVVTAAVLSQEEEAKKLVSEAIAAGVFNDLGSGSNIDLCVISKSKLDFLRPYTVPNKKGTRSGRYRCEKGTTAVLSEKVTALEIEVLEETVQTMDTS

U266 [5] = tested on: U266
U266 [6] = assay: Cell growth inhibition (resazurin), U266; conditions: 48 hours drug exposure
RPMI 8226 [7] = assay: Cell growth inhibition (resazurin), RPMI 8226; conditions: Homo sapiens, RPMI-8226, 48 h, read-out: RPMI 8226 EC50, Table 2; 48 hours drug exposure; mean ± SD where n≥3
[8] = target: T4, caspase-like activity of purified rabbit muscle 20S proteasome (Oryctolagus cuniculus, UniProt A0A5F9DQW2); assay: In vitro inhibition of 20S proteasome caspase-like activity (Z-LLE-AMC); conditions: EC50 Caspase-like, Table 6, values in μM
T4 sequence (A0A5F9DQW2 1-212): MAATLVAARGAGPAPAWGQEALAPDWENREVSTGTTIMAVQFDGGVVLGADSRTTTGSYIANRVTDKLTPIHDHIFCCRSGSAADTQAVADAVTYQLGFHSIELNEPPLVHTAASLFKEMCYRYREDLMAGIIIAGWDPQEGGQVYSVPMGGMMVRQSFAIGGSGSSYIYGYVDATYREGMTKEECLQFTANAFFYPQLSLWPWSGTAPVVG

[9] = target: T5, chymotrypsin-like activity of purified rabbit muscle 20S proteasome (Oryctolagus cuniculus, UniProt G1T4Q9); assay: In vitro inhibition of 20S proteasome chymotrypsin-like activity (suc-LLVY-AMC)
T5 sequence (G1T4Q9 1-263): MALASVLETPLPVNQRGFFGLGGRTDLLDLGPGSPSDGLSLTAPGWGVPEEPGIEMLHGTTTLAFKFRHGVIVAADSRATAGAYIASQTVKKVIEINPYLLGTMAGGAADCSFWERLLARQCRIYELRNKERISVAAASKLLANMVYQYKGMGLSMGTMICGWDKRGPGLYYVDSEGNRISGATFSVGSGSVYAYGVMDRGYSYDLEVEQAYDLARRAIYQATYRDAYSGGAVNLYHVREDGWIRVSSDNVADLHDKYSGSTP

HL-60/MX2 = assay: Cell growth inhibition (resazurin), multidrug resistant HL-60/MX2; conditions: ratio of EC50 values (HL-60/MX2:HL-60)
Protocol: Concentrations ranging from 6.32 μM to 2 nM were tested for II-2 and II-4.
HL-60/MX2 is a multidrug resistant tumor cell line derived from the human promyelocytic leukemia cell line, HL-60 and expresses reduced topoisomerase II activity. […] Mitoxantrone, the topoisomerase II targeting agent was included as a control.

MES-SA/Dx5 = assay: Cell growth inhibition (resazurin), multidrug resistant MES-SA/Dx5; type: cell-based, human; conditions: for EC50: Table 3, 48 hours drug exposure

How did the inhibition at 0.001 µM [1] turn out when `CC[C@H]1C(=O)N[C@@]2([C@@H](O)[C@@H]3C=CCCC3)C(=O)O[C@@]12C` [Formula II-17] was run?
Its inhibition at 0.001 µM is 6 ± 6%.

What about the inhibition at 0.005 µM [1] of the same compound?
Its inhibition at 0.005 µM is 10 ± 5%.

What about the inhibition at 0.01 µM [1] of the same compound?
Its inhibition at 0.01 µM is 6 ± 6%.

And the inhibition at 0.05 µM [1]?
Its inhibition at 0.05 µM is 26 ± 5%.

And the inhibition at 0.1 µM [1]?
The inhibition at 0.1 µM was 30 ± 4%.

And the inhibition at 0.5 µM [1]?
The inhibition at 0.5 µM was 39 ± 3%.

And the inhibition at 1 µM [1]?
The inhibition at 1 µM was 46 ± 4%.

And the inhibition at 10 µM [1]?
Its inhibition at 10 µM is 65 ± 5%.

What about the “% inhibition of the chymotrypsin-like activity of 20S proteasomes in PC-3 cell lysates” value [2] of the same compound?
Its value is 26%.

And the “cytotoxicity against RPMI 8226 in media containing 1% or 10% FBS, in words” value (RPMI 8226 [3])?
The value was “cytotoxic”.

And the EC50 [4]?
The EC50 was 0.573 µM and 0.602 µM.

Which results are given for `C[C@@]12OC(=O)[C@]1([C@@H](O)[C@H]1CCC[C@H](Cl)[C@H]1O)NC(=O)[C@@H]2CCCl` [Formula IV-3C]?
cytotoxicity against U266, in words (U266 [5]): cytotoxic; EC50 [4]: > 20 µM; EC50 (U266 [6]; Homo sapiens, U-266, 48 h, read-out: U266 EC50, Table 2): 7.76 µM; EC50 (U266 [6]; read-out: U266 EC50, Table 2): 8.29 µM; EC50 (RPMI 8226 [7]): > 20 µM; EC50 [8]: > 20 µM; EC50 ([9]; EC50 Chymotrypsin-like, Table 6, values in μM): 4.9 µM and 10.6 µM; EC50 ([9]; EC50 values, chymotrypsin-like activity, range or bound stated in text, summary of Table 6): 1.4 to 10.6 µM

Which Fold change (HL-60/MX2) does the source give for `O=C1c2c(O)ccc(O)c2C(=O)c2c(NCCNCCO)ccc(NCCNCCO)c21` [Mitoxantrone, reference compound] here?
Its Fold change is ~30 fold.

How did the inhibition at 0.001 µM ([1]; 1 nM, 1 hr incubation, mean ± SD, n = 3) turn out when `CC(C)[C@H](O)[C@@]12NC(=O)[C@H](C)[C@@H]1OC2=O` [Omuralide, reference compound] was run?
Its inhibition at 0.001 µM is 5 ± 9%.

What about the inhibition at 0.005 µM ([1]; 5 nM, 1 hr incubation, mean ± SD, n = 3) of the same compound?
Its inhibition at 0.005 µM is 8 ± 9%.

And the inhibition at 0.05 µM ([1]; 50 nM, 1 hr incubation, mean ± SD, n = 3)?
Its inhibition at 0.05 µM is 17 ± 11%.

What about the inhibition at 0.1 µM ([1]; 100 nM, 1 hr incubation, mean ± SD, n = 3) of the same compound?
The inhibition at 0.1 µM was 32 ± 8%.

And the inhibition at 0.5 µM ([1]; 500 nM, 1 hr incubation, mean ± SD, n = 3)?
The inhibition at 0.5 µM was 68 ± 11%.

And the “% inhibition of the chymotrypsin-like activity of 20S proteasomes in PC-3 cell lysates” value [2]?
The value was 36%.

And the inhibition at 0.1 µM ([2]; PC-3, read-out: % inhibition of the chymotrypsin-like activity of 20S proteasomes in PC-3 cell lysates)?
Its inhibition at 0.1 µM is 36%.

What does the source list for `CC(=O)O[C@H]1C(=O)[C@@]2(C)[C@H]([C@H](OC(=O)c3ccccc3)[C@]3(O)C[C@H](OC(=O)[C@H](O)[C@@H](NC(=O)c4ccccc4)c4ccccc4)C(C)=C1C3(C)C)[C@]1(OC(C)=O)CO[C@@H]1C[C@@H]2O` [Paclitaxel]?
EC50 (MES-SA/Dx5; Homo sapiens, MES-SA/Dx5, 48 h): 2.93 µM; EC50 (MES-SA/Dx5): 5.21 µM; Fold change (MES-SA/Dx5; ratio of EC50 values (MES-SA/Dx5:MES-SA)): ~800 fold
